Results reported in patent US10543216B2, “Modus of administration of iron, and new formulations adapted for the said goal” (BIOFER S.P.A., priority 2013, dated 2020).
Where two headings read alike, the source gives them in different places.

Tests used:
[1] = randomized clinical study, sublingual administration of 30 mg of Fe2+ to healthy volunteers; type: in vivo, human; settings: for Serum Fe / Transferrin saturation / Total iron / NTBI (free non transferrin bound iron): 30 mg Fe2+ sublingual (6 sachets of example 6), fasting healthy volunteers n=2, average; for Total iron / NTBI (free non transferrin bound iron): ICP-MS; for NTBI (free non transferrin bound iron): ultrafiltration
Experimental: The participants were hospitalized for two days prior to administration until the next day and were under medical observation.
The samples were then analyzed with respect to the trend of (average) concentrations of various indicators over time.
Total iron measured in micrograms/dl (ICP-MS)
Free iron by ultrafiltration measured in micromoles/liter (=NTBI) (ICP-MS)
Total iron binding capacity (TIBC) measured in micrograms/dl (column separation, Vitros analyzer)
Transferrin saturation (PTS) measured in %
Serum iron (SI), measured in micrograms/dl, colorimetric method (Vitros analyzer)

[2] = 100 mg of Fe2+ orally, healthy volunteers, Dresow et al., FIG. 5, cited from earlier work
[3] = tested on: Pig esophageal epithelium; assay: in vitro permeation in the Franz cell (model of sublingual absorption); settings: FIG. 2
Experimental: Sublingual absorption of Fe++ compounds was evaluated by means of in vitro permeation experiments using the Franz cell exemplified in FIG. 1. Pig esophageal epithelium was used as membrane. This experimental model is recognized as valid and reliable in the assessment of sublingual absorption of drugs [I. Diaz Del Consuelo, G. P. Pizzolato, F. Falsom, R. H. Guy, and Y. Jacques.: Evaluation of pig esophageal mucosa as a permeability barrier model for buccosal tissue. J. Pharm. […] Arch. […] Membrane preparation occurred by following the method described here. The esophagi were taken from the animals within one hour after sacrifice. The mucosa was separated from the muscle tissue with a lancet. To separate the epithelium, the mucosa was immersed in distilled water at 60° C. for 2 minutes and then the epithelium was removed from the underlying tissue with the aid of a spatula. The tissues thus prepared were stored at −20° C. until the time of use, when they were thawed to room temperature before being mounted on the vertical diffusion cells of the Franz type, a schematic view of which is shown in FIG. 1. The esophageal epithelium was placed on a regenerated cellulose filter (pore diameter 0.45 μm) with the luminal side facing up, and mounted between the donor and receptor compartments of the Franz cells. […] The exposed surface was 0.6 cm^2. The receptor compartment was filled with approximately 4 ml of physiological solution (0.9% NaCl w/v) and kept under constant magnetic agitation for the entire duration of the experiment. The entire system was thermostat-controlled at 37° C. Sampling of the receptor compartment was performed by drawing 200 μl of receptor solution, which were replaced immediately with an equal volume of fresh physiological solution. The samples were taken at preset time intervals, specifically at 0, 1, 2, 3, 4, 5 and 6 hours.
4 g of powder were suspended in 10 ml of physiological solution and left under agitation for 15 minutes, then the solution was filtered with regenerated cellulose filters (pore diameter 0.45 μm).
6 g of powder were suspended in 10 ml of physiological solution. The suspension was left under magnetic agitation for 25 minutes and then filtered with regenerated cellulose filters (pore diameter 0.45 μm).
7 g of powder were suspended in 6 ml of physiological solution. The suspension was left under magnetic agitation for 1 hour; at the end it was filtered with regenerated cellulose filters (pore diameter 0.45 μm).
An excess of ascorbic acid (2 g) was added to the solution. The suspension was left under magnetic agitation for 30 minutes and after filtration through regenerated cellulose filters (pore diameter 0.45 μm) was used as it was.
4 g of powder were suspended in 10 ml of physiological solution. The suspension was left under magnetic agitation for 15 hours, at the end of which it was filtered with regenerated cellulose filters (pore diameter 0.45 μm).
An excess of powder was suspended in 10 ml of physiological solution. The suspension was left under magnetic agitation for 15 hours, at the end of which it was filtered with regenerated cellulose filters (pore diameter 0.45 μm).

ferrous ascorbate [Fe++ ascorbate]
Serum Fe ([1]; time 0 h): 0 µg/dL
Transferrin saturation ([1]; time 0 min (at administration)): ~24%
Serum Fe ([1]; time 0.033 h): 5.5 µg/dL
Transferrin saturation ([1]; time 2 min): 28%
Serum Fe ([1]; time 0.100 h): 7 µg/dL
Transferrin saturation ([1]; time 6 min): 28%
Serum Fe ([1]; time 0.200 h): 6 µg/dL
Transferrin saturation ([1]; time 12 min): 28.5%
Serum Fe ([1]; time 0.330 h): 10 µg/dL
Transferrin saturation ([1]; time 20 min): 26.5%
Serum Fe ([1]; time 0.500 h): 24 µg/dL
Transferrin saturation ([1]; time 30 min): 36%
Serum Fe ([1]; time 0.750 h): 51.5 µg/dL
Transferrin saturation ([1]; time 45 min): 40.5%
Serum Fe ([1]; time 1.000 h): 72 µg/dL
Transferrin saturation ([1]; time 60 min): 50%
Serum Fe ([1]; time 1.250 h): 91 µg/dL
Transferrin saturation ([1]; time 75 min): 51.5%
Serum Fe ([1]; time 1.500 h): 110.5 µg/dL
Transferrin saturation ([1]; time 90 min): 60%
Serum Fe ([1]; time 1.750 h): 118.5 µg/dL
Transferrin saturation ([1]; time 105 min): 49.5%
Serum Fe ([1]; time 2.000 h): 129 µg/dL
Transferrin saturation ([1]; time 120 min (2 hours), listed as Fe2+ (as ascorbate)): 65.5%
Transferrin saturation ([1]; time 120 min (2 hours), listed as Fe2+ Ascorbate): 66.5%
increase in transferrin saturation (PTS) ([1]; 30 mg of Fe2+ sublingual, healthy volunteers, after 2 hours versus time of administration): 42.5%
free iron (NTBI) ([1]; 30 mg of Fe2+ sublingual, healthy volunteers, after 2 hours, from 0): 0.34 µmol/L
Total iron ([1]; time 0.00 h): 0 µg/dL
Total iron ([1]; time 0.03 h): -7.4 µg/dL
Total iron ([1]; time 0.10 h): 6.2 µg/dL
Total iron ([1]; time 0.20 h): -13.54 µg/dL
Total iron ([1]; time 0.33 h): 5.95 µg/dL
Total iron ([1]; time 0.50 h): 6.37 µg/dL
Total iron ([1]; time 0.75 h): 41.58 µg/dL
Total iron ([1]; time 1.00 h): 51.01 µg/dL
Total iron ([1]; time 1.25 h): 80.17 µg/dL
Total iron ([1]; time 1.50 h): 90.15 µg/dL
Total iron ([1]; time 1.75 h): 95.7 µg/dL
Total iron ([1]; time 2.00 h): 110.94 µg/dL
NTBI (free non transferrin bound iron) ([1]; time 0 min): 0.000 µmol/L
NTBI (free non transferrin bound iron) ([1]; time 2 min): -0.306 µmol/L
NTBI (free non transferrin bound iron) ([1]; time 6 min): -0.215 µmol/L
NTBI (free non transferrin bound iron) ([1]; time 12 min): 0.029 µmol/L
NTBI (free non transferrin bound iron) ([1]; time 20 min): 0.067 µmol/L
NTBI (free non transferrin bound iron) ([1]; time 30 min): 0.106 µmol/L
NTBI (free non transferrin bound iron) ([1]; time 45 min): 0.448 µmol/L
NTBI (free non transferrin bound iron) ([1]; time 60 min): 0.311 µmol/L
NTBI (free non transferrin bound iron) ([1]; time 75 min): 1.191 µmol/L
NTBI (free non transferrin bound iron) ([1]; time 90 min): 0.084 µmol/L
NTBI (free non transferrin bound iron) ([1]; time 105 min): 0.806 µmol/L
NTBI (free non transferrin bound iron) ([1]; time 120 min): 0.339 µmol/L
increase in transferrin saturation ([2]; after 2 hours): approximately 45%
transferrin saturation (absolute) ([2]; after two hours): approximately 75%
Transferrin saturation ([2]; at the time of administration): approximately 30%
free iron (NTBI) ([2]; within two hours, from 0): 6.7 µmol/L
permeated divalent Fe ([3]; 50 mg/ml solution, in the presence of ascorbic acid, pH 2.6, after 3 hours): above 150 micrograms/square centimeter
permeated divalent Fe ([3]; 50 mg/ml solution, in the presence of ascorbic acid, pH 2.6, after 4 hours): approximately 200 micrograms/square centimeter
permeated divalent Fe ([3]; 350 mg/ml solution, in the presence of ascorbic acid, pH 4.4, after 3 hours): below 150 micrograms/square centimeter
permeated divalent Fe ([3]; 350 mg/ml solution, in the presence of ascorbic acid, pH 4.4, after 4 hours): approximately 200 micrograms/square centimeter
permeated divalent Fe ([3]; 400 mg/ml solution, in the absence of ascorbic acid, pH 4.4, after 3 hours): above 100 micrograms/square centimeter
permeated divalent Fe ([3]; 400 mg/ml solution, in the absence of ascorbic acid, pH 4.4, after 6 hours): approximately 150 micrograms/square centimeter
permeated divalent Fe ([3]; 600 mg/ml solution, in the absence of ascorbic acid, pH 4.4, after 3 hours): above 100 micrograms/square centimeter
permeated divalent Fe ([3]; 600 mg/ml solution, in the absence of ascorbic acid, pH 4.4, after 6 hours): approximately 125 micrograms/square centimeter
permeated divalent Fe ([3]; 1000 mg/ml solution, in the absence of ascorbic acid, pH 4.4, after 3 hours): approximately 50 micrograms/square centimeter
permeated divalent Fe ([3]; 1000 mg/ml solution, in the absence of ascorbic acid, pH 4.4, after 5 hours): approximately 100 micrograms/square centimeter
